Data published in patent US8088887B2, “Peptide-conjugates that bind to VEGF-stimulated or tumor vasculature and methods of treatment” (Academia Sinica, priority 2007, dated 2012).
Entries after “also recorded” stand apart in the source; their conditions may differ.

Legend:
[1] = tested on: oral cancer xenografts; test: Peptide competitive inhibition of IVO-2 phage homing, oral cancer xenografts; assay type: in vivo, SCID mice
[2] = tested on: NSCLC tumor mass (CL1-5-derived tumors); test: Peptide competitive inhibition of PC5-52 phage homing, lung cancer xenografts; assay type: in vivo, SCID mice
Procedure: To investigate the targeting ability of PC5-52, phages were injected into the tail vein of SCID mice bearing human lung cancer cell-derived tumors and recovered after perfusion. We determined the titers of the phages in tumor mass and other normal organs. The phage clones, or control helper phage (insertless phage), were injected into the tail vein (i.v.) of SCID mice bearing human lung cancer tumor xenografts for 8 min or 24 h. After perfusion, xenograft tumors and organs were removed and the recovered phage titered. In peptide competitive inhibition experiments, described below, phage clones were co-injected with 100 μg synthetic peptide. After injection of candidate or control phage clones, the organs and tumors were removed and divided into two parts. One part was titered by ER2738, and another part was embedded in Optimal Cutting Temperature (OCT, Tissue-Tek, NL, USA). The OCT-embedded frozen tissues were sectioned at 5 microns and transferred to cold PBS buffer. Then, the sections were fixed with acetone-methanol (1:1), washed with PBS and immersed in blocking buffer (1% BSA in PBS) for 1 h. The blocked samples were then incubated with rat anti-mouse CD31 (BD Pharmingen, Mass., USA.), rabbit anti-rat Ab (Stressgen, Canada) and immersed in Rhodamine labeled goat anti-rabbit antibody (Jackson ImmunoResearch, Pa., USA.). […]

| Sequence | inhibition of IVO-2 homing to tumor tissue ([1]; co-injected peptide, FIG. 2D) | inhibition of IVO-2 homing to oral cancer xenografts ([1]; coinjection of 100 μg peptide) [%] | inhibition of PC5-52 homing to NSCLC tumor mass ([2]; 100 μg peptide co-injected with phage) [%] | inhibition of tumor homing ability of PC5-52 ([2]; co-injected peptide, CL1-5-derived tumors, FIG. 2B/4B) |
| --- | --- | --- | --- | --- |
| RLLDTNRPLLPY [Control peptide, synthetic control peptide, reference compound] | could not inhibit |  |  |  |
| SVSVGMKPSPRP [SP5-52] |  | 95.9 | 97 | inhibited markedly; also recorded: markedly inhibited |
